Laboratory results published in paper PMC12559310, “Tumor-targeted top1 inhibitor delivery with optimized parp inhibition in advanced solid tumors: a phase i trial of gapped scheduling” (Nature Communications, 2025).
Read-outs that look alike come from different tables or passages of the source.

Experiments:
DNA damage = system: DNA damage; parameters: method as in earlier work; conditions: preclinical studies, transient, declining thereafter; cited from earlier work
[1] = system: patients with advanced solid tumors; experiment: Phase I dose escalation (3 + 3 design): DLTs and MTD/RP2D of CRLX101 plus olaparib; type: in vivo, human; conditions: Olaparib 250 tab bid d3-13, 17-26 combined with CRLX101 12 mg/m2; % of single-agent MTD; Current study
From the text: Olaparib tablets were given at escalating doses across cohorts (as shown in Fig. 1), administered twice daily on days 3–13 and 17–26 of the treatment cycle.
A standard 3 + 3 design was used for dose escalation. […] DLTs were based on toxicities observed during the first cycle. […] Study treatment was discontinued if there was a > 3-week delay in reinstitution of treatment due to drug-related toxicity during a cycle. Dose reductions were allowed for toxicities. A maximum of two dose reductions were allowed. Dose re-escalation was not allowed.

[2] = Olaparib peak plasma concentration (2 h post-oral administration); type: in vivo, human
Experimental: Approximately 4 mL of blood was collected into a sodium heparin tube (BD Biosciences), immediately processed into plasma before storage in cryovials at − 80 °C. […] Total CPT, polymer-unconjugated CPT, and olaparib plasma concentrations were measured using previously published assays[53],[54]. Polymer-conjugated CPT plasma concentrations were obtained via subtracting the polymer-unconjugated concentration from the total CPT concentration.
First dose pharmacokinetic parameters were calculated using noncompartmental methods (Phoenix WinNonlin 8.0, Certara Pharsight Corp, Cary, NC). Any plasma concentration measured below the LLOQ was excluded from analyses. The maximum plasma concentration (CMAX) and time to CMAX (TMAX) were recorded as observed values. The area under the plasma concentration vs time curve to the last observed time point (AUCLAST) was calculated using the Linear Up Log Down trapezoidal rule. The elimination rate (kEL) was calculated as the slope of the log-transformed concentrations vs terminal time points. AUC extrapolated to time infinity (AUCINF) was calculated as AUCLAST + CLAST/kEL, where CLAST is the concentration at the last observed time point. Half-life (t1/2) was calculated as ln2/kEL. Apparent oral clearance (CL/F) was calculated as dose/AUCINF; volume of distribution at steady-state (Vss) was calculated via the product of mean residence time extrapolated to infinity (MRTINF) and […]. Pharmacokinetic parameters were calculated for each individual and summarized using the arithmetic mean ± standard deviation (SD).

SCLC cell lines = system: SCLC cell lines; parameters: method as in protocol [5]; conditions: pre-clinical models of SCLC; ref protocol [5]; cited from earlier work
CYP3A4 [3] = conditions: in vitro; cited from earlier work
CYP3A4 [4] = conditions: in vitro; cited from earlier work; remark: listed apart in the source
CYP1A2 = conditions: in vitro; cited from earlier work
CYP2B6 = conditions: in vitro; cited from earlier work
CYP3A4 [5] = conditions: in vitro; cited from earlier work; remark: listed apart in the source
P-gp = conditions: in vitro; cited from earlier work
OATP1B1 = conditions: in vitro; cited from earlier work
OCT1 = conditions: in vitro; cited from earlier work
OCT2 = conditions: in vitro; cited from earlier work
OAT3 = conditions: in vitro; cited from earlier work
MATE1 = conditions: in vitro; cited from earlier work
MATE2K = conditions: in vitro; cited from earlier work
BRCP = conditions: in vitro; cited from earlier work
anaesthetized dog = system: anaesthetized dog; parameters: method as in olaparib Investigator’s Brochure; conditions: at the doses studied, ref olaparib Investigator’s Brochure; cited from earlier work
rat = system: rat; parameters: method as in olaparib Investigator’s Brochure; conditions: rat Irwin test, at the doses studied; ref olaparib Investigator’s Brochure; cited from earlier work
target organ of toxicity = system: target organ of toxicity; parameters: method as in olaparib Investigator’s Brochure; conditions: toxicology studies; ref olaparib Investigator’s Brochure; cited from earlier work
patients = conditions: tablet BID; protocol rationale; cited from earlier work
[6] = system: patients with solid tumors; conditions: Inv New Drugs, cited from earlier work

CC[C@@]1(O)C(=O)OCc2c1cc1n(c2=O)Cc2cc3ccccc3nc2-1 [camptothecin, 20(S)-camptothecin]
time of peak of camptothecin-induced DNA damage (DNA damage): 24 to 48 h

O=C(c1cc(Cc2n[nH]c(=O)c3ccccc23)ccc1F)N1CCN(C(=O)C2CC2)CC1 [olaparib]
PARPi % of MTD [1]: 83%
dose dependence of peak concentrations ([2]; 100-300 mg, 2 hours post-dose): increased proportionally with the dose
CMAX ([2]; Olaparib dose 100 mg, N 2, 2 h post-dose, mean ± SD): 2843.1 ± 947.62 ng/mL
CMAX ([2]; Olaparib dose 150 mg, N 5, 2 h post-dose, mean ± SD): 2359.8 ± 1548.0 ng/mL
CMAX ([2]; Olaparib dose 200 mg, N 3, 2 h post-dose, mean ± SD): 4496.7 ± 2375.2 ng/mL
CMAX ([2]; Olaparib dose 300 mg, N 6, 2 h post-dose, mean ± SD): 5594.6 ± 4132.4 ng/mL
Cmax at 2 h ([2]; human, plasma, oral, Olaparib dose 250 mg, N 7, 2 h post-dose, mean ± SD): 6340 ± 4870 ng/mL
single agent activity (SCLC cell lines): striking single agent activity in a majority of SCLC cell lines tested
CYP3A4 inhibition (CYP3A4 [3]): inhibits CYP3A4 in vitro
principal enzyme forming the 3 main metabolites (CYP3A4 [4]): CYP3A4
CYP1A2 induction (CYP1A2): Induction
CYP2B6 induction (CYP2B6): Induction
CYP3A4 induction (CYP3A4 [5]): Induction
P-gp inhibition (P-gp): inhibitor
OATP1B1 inhibition (OATP1B1): inhibitor
OCT1 inhibition (OCT1): inhibitor
OCT2 inhibition (OCT2): inhibitor
OAT3 inhibition (OAT3): inhibitor
MATE1 inhibition (MATE1): inhibitor
MATE2K inhibition (MATE2K): inhibitor
BRCP inhibition (BRCP): weak inhibitor
effects on cardiovascular or respiratory parameters (anaesthetized dog): no noticeable
behavioural, autonomic or motor effects (rat): no noticeable
target organ of toxicity (target organ of toxicity): bone marrow
single-agent maximum tolerated dose (MTD) (patients): 300 mg
PARPi % of MTD ([6]; Olaparib 50 mg bid d1-5 with Irinotecan 125 mg/m2 q2w, ref Chen, 2016): 12%
PARPi % of MTD ([6]; Olaparib 50 mg qd d1-21 with Irinotecan 200 mg/m2 q3w, ref Chen, 2016): 6%
PARPi % of MTD ([6]; Olaparib 100 mg bid d1-21 with Topotecan 1 mg/m2/d1-3, ref Samol, 2012): 25%
